# From patent US20260265265A1, “NOVEL BENZIMIDAZOLONE DERIVATIVE COMPOUND AS AUTOTAXIN INHIBITOR” (LG CHEM, LTD., priority 2023, published 2026)
# Target: T1, Recombinant Human ENPP-2/Autotaxin (Homo sapiens, UniProt Q13822)
# T1 construct: purchased R&D systems 5255-EN
# Assay: LysoPLD activity measurement (autotaxin enzyme inhibition, choline release, TOOS reagent)
# Format: biochemical
# Settings: LysoPLD inhibitory activity; substrate 14:0 LysoPC; absorbance at 555 nm
# Outline: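 Enzyme and compound were preincubated for 30 min before adding 14:0 LysoPC substrate, diluted to 300 μM, for 90 minutes at 37° C. The choline product was quantified colorimetrically with TOOS reagent. Wells without compound held 1% DMSO.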
row,SMILES,IC50
1,"O=C(O)c1cc(F)cc(C2(n3c(=O)n(-c4ccc(C5CCOCC5)nc4)c4cc(Cl)ccc43)CC2)c1 [Example 262, 3-(1-(5-chloro-2-oxo-3-(6-(tetrahydro-2H-pyran-4-yl)pyridin-3-yl)-2,3-dihydro-1H-benzo[d]imidazol-1-yl)cyclopropyl)-5-fluorobenzoic acid]",0.01 to 0.1 µM
2,"O=C(O)c1cccc(C2(n3c(=O)n(-c4ccc(-c5nnc(C6CCCCCC6)o5)cc4)c4cc(Cl)ccc43)CC2)c1 [Example 264, 3-(1-(5-chloro-3-(4-(5-cycloheptyl-1,3,4-oxadiazol-2-yl)phenyl)-2-oxo-2,3-dihydro-1H-benzo[d]imidazol-1-yl)cyclopropyl)benzoic acid]",0.01 to 0.1 µM
3,"O=C(O)c1cccc(C2(n3c(=O)n(-c4ccc(-c5nnc(C6CCOCC6)o5)cc4)c4cc(Cl)ccc43)CC2)c1F [Example 268, 3-(1-(5-chloro-2-oxo-3-(4-(5-(tetrahydro-2H-pyran-4-yl)-1,3,4-oxadiazol-2-yl)phenyl)-2,3-dihydro-1H-benzo[d]imidazol-1-yl)cyclopropyl)-2-fluorobenzoic acid]",< 0.01 µM
4,"CN(C)c1ccc(-n2c(=O)n(C3(c4cc(F)cc(C(=O)O)c4)CC3)c3ncc(Cl)cc32)cc1 [Example 271, 3-(1-(6-chloro-1-(4-(dimethylamino)phenyl)-2-oxo-1,2-dihydro-3H-imidazo[4,5-b]pyridin-3-yl)cyclopropyl)-5-fluorobenzoic acid]",< 0.01 µM
5,"CN(C)C(=O)c1ccc(-n2c(=O)n(C3(c4cc(F)cc(C(=O)O)c4)CC3)c3ncc(Cl)cc32)cc1 [Example 272, 3-(1-(6-chloro-1-(4-(dimethylcarbamoyl)phenyl)-2-oxo-1,2-dihydro-3H-imidazo[4,5-b]pyridin-3-yl)cyclopropyl)-5-fluorobenzoic acid]",< 0.01 µM

# Other lines, results leading:
row,IC50,SMILES
1,< 0.01 µM,"O=C(O)c1cccc(C2(n3c(=O)n(-c4ccc(-c5nnc(C6CC6)o5)cc4)c4cc(Cl)ccc43)CC2)c1 [Example 263, 3-(1-(5-chloro-3-(4-(5-cyclopropyl-1,3,4-oxadiazol-2-yl)phenyl)-2-oxo-2,3-dihydro-1H-benzo[d]imidazol-1-yl)cyclopropyl)benzoic acid]"
2,0.01 to 0.1 µM,"O=C(O)c1cccc(C2(n3c(=O)n(-c4ccc(-c5nnc(C6CCCCC6)o5)cc4)c4cc(Cl)ccc43)CC2)c1 [Example 265, 3-(1-(5-chloro-3-(4-(5-cyclohexyl-1,3,4-oxadiazol-2-yl)phenyl)-2-oxo-2,3-dihydro-1H-benzo[d]imidazol-1-yl)cyclopropyl)benzoic acid]"
3,< 0.01 µM,"O=C(O)c1cccc(C2(n3c(=O)n(-c4ccc(-c5nnc(C6CCCC6)o5)cc4)c4cc(Cl)ccc43)CC2)c1 [Example 266, 3-(1-(5-chloro-3-(4-(5-cyclopentyl-1,3,4-oxadiazol-2-yl)phenyl)-2-oxo-2,3-dihydro-1H-benzo[d]imidazol-1-yl)cyclopropyl)benzoic acid]"
4,< 0.01 µM,"O=C(O)c1cccc(C2(n3c(=O)n(-c4ccc(-c5nnc(C6CCOCC6)o5)cc4)c4cc(Cl)ccc43)CC2)c1 [Example 267, 3-(1-(5-chloro-2-oxo-3-(4-(5-(tetrahydro-2H-pyran-4-yl)-1,3,4-oxadiazol-2-yl)phenyl)-2,3-dihydro-1H-benzo[d]imidazol-1-yl)cyclopropyl)benzoic acid]"
5,< 0.01 µM,"CCCn1cc(-c2ccc(-n3c(=O)n(C4(c5cccc(C(=O)O)c5)CC4)c4ccc(Cl)cc43)cc2)cn1 [Example 269, 3-(1-(5-chloro-2-oxo-3-(4-(1-propyl-1H-pyrazol-4-yl)phenyl)-2,3-dihydro-1H-benzo[d]imidazol-1-yl)cyclopropyl)benzoic acid]"
6,< 0.01 µM,"CCCn1cc(-c2ccc(-n3c(=O)n(C4(c5cccc(C(=O)O)c5)CC4)c4ncc(Cl)cc43)cc2)cn1 [Example 270, 3-(1-(6-chloro-2-oxo-1-(4-(1-propyl-1H-pyrazol-4-yl)phenyl)-1,2-dihydro-3H-imidazo[4,5-b]pyridin-3-yl)cyclopropyl)benzoic acid]"
